Laboratory results as given in ChEMBL document CHEMBL5584219 (Bioorg Med Chem Lett, 2024).
pIC50: −log10 of the molar value. Activity calls are given as the source filed them. No cut-off for these calls is given here.

Legend:
[1] = test system: PC-9; test: Antiproliferative activity against human PC-9 cells assessed as inhibition of cell growth incubated for 48 hrs by MTT assay; format: functional, cell-based; conditions: PC-9, 48 h
[2] = Antiproliferative activity against human PC9 Gefitinib-resistant (GR) cell assessed as inhibition of cell growth incubated for 48 hrs in presence of erlotinib by MTT assay; format: functional, cell-based; conditions: Gefitinib-resistant PC9, 48 h
[3] = test system: A549; test: Antiproliferative activity against human A549 cells assessed as inhibition of cell growth incubated for 48 hrs in presence of erlotinib by MTT assay; format: functional, cell-based; conditions: A549, 48 h
[4] = test system: A549; test: Antiproliferative activity against human A549 cells assessed as inhibition of cell growth incubated for 48 hrs by MTT assay; format: functional, cell-based; conditions: A549, 48 h
[5] = test system: PC-9; test: Antiproliferative activity against human PC-9 cells assessed as inhibition of cell growth incubated for 48 hrs in presence of erlotinib by MTT assay; format: functional, cell-based; conditions: PC-9, 48 h
[6] = test system: NCI-H460; test: Antiproliferative activity against human NCI-H460 cells assessed as inhibition of cell growth incubated for 48 hrs in presence of erlotinib by MTT assay; format: functional, cell-based; conditions: NCI-H460, 48 h
[7] = Antiproliferative activity against human PC9 Gefitinib-resistant (GR) cell assessed as inhibition of cell growth incubated for 48 hrs by MTT assay; format: functional, cell-based; conditions: Gefitinib-resistant PC9, 48 h
[8] = test system: NCI-H460; test: Antiproliferative activity against human NCI-H460 cells assessed as inhibition of cell growth incubated for 48 hrs by MTT assay; format: functional, cell-based; conditions: NCI-H460, 48 h
[9] = test system: A549; test: Induction of cell cycle arrest in human A549 cells assessed as accumulation of cells at G0/G1 phase at 10 uM incubated for 48 hrs by flow cytometry analysis (reference value: 53.63%); format: functional
[10] = test system: A549; test: Induction of apoptosis in human A549 cells assessed as late apoptotic cells at 10 uM incubated for 48 hrs in presence of erlotinib by annexin V FITC and propidium iodide based flow cytometry (reference value: 0.76 %); format: functional
[11] = test system: A549; test: Induction of cell cycle arrest in human A549 cells assessed as accumulation of cells at S phase at 10 uM incubated for 48 hrs in presence of erlotinib by flow cytometry analysis (reference value: 46.37%); format: functional
[12] = test system: A549; test: Induction of apoptosis in human A549 cells assessed as necrotic cells at 10 uM incubated for 48 hrs in presence of erlotinib by annexin V FITC and propidium iodide based flow cytometry (reference value: 1.49 %); format: functional
[13] = test system: A549; test: Induction of cell cycle arrest in human A549 cells assessed as accumulation of cells at S phase at 10 uM incubated for 48 hrs by flow cytometry analysis (reference value: 46.37%); format: functional
[14] = test system: A549; test: Induction of apoptosis in human A549 cells assessed as necrotic cells at 10 uM incubated for 48 hrs by annexin V FITC and propidium iodide based flow cytometry (reference value: 1.49 %); format: functional
[15] = test system: A549; test: Induction of apoptosis in human A549 cells assessed as viable cells at 10 uM incubated for 48 hrs in presence of erlotinib by annexin V FITC and propidium iodide based flow cytometry (reference value: 95.6 %); format: functional; conditions: read-out: Activity
[16] = test system: A549; test: Induction of apoptosis in human A549 cells assessed as early apoptotic cells at 10 uM incubated for 48 hrs in presence of erlotinib by annexin V FITC and propidium iodide based flow cytometry (reference value: 2.13 %); format: functional
[17] = test system: A549; test: Induction of apoptosis in human A549 cells assessed as viable cells at 10 uM incubated for 48 hrs by annexin V FITC and propidium iodide based flow cytometry (reference value: 95.6 %); format: functional; conditions: read-out: Activity
[18] = test system: A549; test: Induction of cell cycle arrest in human A549 cells assessed as accumulation of cells at G0/G1 phase at 10 uM incubated for 48 hrs in presence of erlotinib by flow cytometry analysis (reference value: 53.63%); format: functional
[19] = test system: A549; test: Induction of apoptosis in human A549 cells assessed as late apoptotic cells at 10 uM incubated for 48 hrs by annexin V FITC and propidium iodide based flow cytometry (reference value: 0.76 %); format: functional
[20] = test system: A549; test: Induction of apoptosis in human A549 cells assessed as early apoptotic cells at 10 uM incubated for 48 hrs by annexin V FITC and propidium iodide based flow cytometry (reference value: 2.13 %); format: functional
[21] = cells; conditions: Homo sapiens, Gefitinib-resistant PC9, 48 h
[22] = test system: A549; test: Induction of apoptosis in human A549 cells assessed as necrotic cells at 10 uM incubated for 48 hrs in presence of 10-hydroxyl-evodiamine by annexin V FITC and propidium iodide based flow cytometry (reference value: 1.49 %); format: functional
[23] = test system: A549; test: Induction of cell cycle arrest in human A549 cells assessed as accumulation of cells at G0/G1 phase at 10 uM incubated for 48 hrs in presence of 10-hydroxyl-evodiamine by flow cytometry analysis (reference value: 53.63%); format: functional
[24] = test system: A549; test: cells; conditions: Homo sapiens, A549, 48 h
Description: Antiproliferative activity against human A549 cells assessed as inhibition of cell growth incubated for 48 hrs in presence of evodiamine by MTT assay

[25] = test system: A549; test: Induction of apoptosis in human A549 cells assessed as early apoptotic cells at 10 uM incubated for 48 hrs in presence of 10-hydroxyl-evodiamine by annexin V FITC and propidium iodide based flow cytometry (reference value: 2.13 %); format: functional
[26] = test system: A549; test: cells; conditions: Homo sapiens, A549, 48 h; remark: listed apart in the source
[27] = test system: A549; test: Induction of apoptosis in human A549 cells assessed as viable cells at 10 uM incubated for 48 hrs in presence of 10-hydroxyl-evodiamine by annexin V FITC and propidium iodide based flow cytometry (reference value: 95.6 %); format: functional; conditions: read-out: Activity
[28] = test system: PC-9; test: Antiproliferative activity against human PC-9 cells assessed as inhibition of cell growth incubated for 48 hrs in presence of evodiamine by MTT assay; format: functional, cell-based; conditions: PC-9, 48 h
[29] = Antiproliferative activity against human PC9 Gefitinib-resistant (GR) cell assessed as inhibition of cell growth incubated for 48 hrs in presence of evodiamine by MTT assay; format: functional, cell-based; conditions: Gefitinib-resistant PC9, 48 h
[30] = test system: A549; test: Induction of apoptosis in human A549 cells assessed as late apoptotic cells at 10 uM incubated for 48 hrs in presence of 10-hydroxyl-evodiamine by annexin V FITC and propidium iodide based flow cytometry (reference value: 0.76 %); format: functional
[31] = test system: PC-9; test: Antiproliferative activity against human PC-9 cells assessed as inhibition of cell growth incubated for 48 hrs in presence of 10-hydroxyl-evodiamine by MTT assay; format: functional, cell-based; conditions: PC-9, 48 h
[32] = test system: A549; test: Induction of cell cycle arrest in human A549 cells assessed as accumulation of cells at S phase at 10 uM incubated for 48 hrs in presence of 10-hydroxyl-evodiamine by flow cytometry analysis (reference value: 46.37%); format: functional
[33] = test system: A549; test: Induction of apoptosis in human A549 cells assessed as downregulation of EGFR expression level at 10 uM incubated for 48 hrs by Western blot analysis; format: functional, cell-based
[34] = test system: A549; test: Induction of apoptosis in human A549 cells assessed as upregulation of caspase-3 protein expression at 10 uM incubated for 48 hrs by Western blot analysis; format: functional, cell-based
[35] = test system: A549; test: Induction of apoptosis in human A549 cells assessed as decrease in bcl-2 protein expression at 10 uM incubated for 48 hrs by Western blot analysis; format: functional, cell-based
[36] = test system: A549; test: Induction of apoptosis in human A549 cells assessed as upregulation of caspase-9 protein expression at 10 uM incubated for 48 hrs by Western blot analysis; format: functional, cell-based
[37] = test system: A549; test: Induction of apoptosis in human A549 cells assessed as increase in p53 protein expression at 10 uM incubated for 48 hrs by Western blot analysis; format: functional, cell-based
[38] = test system: A549; test: Induction of apoptosis in human A549 cells assessed as increase in bax protein expression at 10 uM incubated for 48 hrs by Western blot analysis; format: functional, cell-based

| SMILES | pIC50 [1] | pIC50 [2] | pIC50 [3] | pIC50 [4] | pIC50 [5] | pIC50 [6] | pIC50 [7] | pIC50 [8] | Activity [9] [%] | Activity [13] [%] | Activity [14] [%] | viability at 10 µM [17] [%] | Activity [19] [%] | Activity [20] [%] | further results |
| --- | --- | --- | --- | --- | --- | --- | --- | --- | --- | --- | --- | --- | --- | --- | --- |
| CN1c2ccccc2C(=O)N2CCc3c([nH]c4ccccc34)[C@H]21 | 4.99 | 5.32 | 5.04 | 4.61 | 5.63 | 4.87 | 4.95 | 4.77 |  |  |  |  |  |  |  |
| CN1c2ccccc2C(=O)N2CCc3c([nH]c4ccc(O)cc34)[C@H]21 | 4.97 | 5.52 | 5.11 | 4.95 | 5.76 | 4.89 | 5.00 | 4.56 | 78.23 | 21.77 | 0.34 | 70.2 | 1.7 | 27.8 | Activity [10]: 2.12%; Activity [11]: 10.64%; Activity [12]: 1.26%; viability at 10 µM [15]: 62%; Activity [16]: 34.6%; Activity [18]: 89.36% |
| C#Cc1cccc(Nc2ncnc3cc(OCCOC)c(OCCOC)cc23)c1 [ERLOTINIB] | 5.74 |  |  | 4.63 |  |  | 5.16 |  | 61.87 | 37.13 | 1 | 93 | 1.21 | 4.82 | pIC50 [21]: 5.52; Activity [22]: 1.26%; Activity [23]: 89.36%; pIC50 [24]: 5.04; Activity [25]: 34.6%; pIC50 [26]: 5.11; viability at 10 µM [27]: 62%; pIC50 [28]: 5.63; pIC50 [29]: 5.32; Activity [30]: 2.12%; pIC50 [31]: 5.76; Activity [32]: 10.64% |
| COCCOc1cc2ncnc(Nc3cccc(-c4cn(CCOCCOCCOCCNC(=O)Cn5c(C)c(COC(=O)N(C)CCN(C)C(=O)Oc6ccc7[nH]c8c(c7c6)CCN6C(=O)c7ccccc7N(C)[C@H]86)c6c5C(=O)C=C(OC)C6=O)nn4)c3)c2cc1OCCOC | 5.94 |  |  | 5.42 |  |  | 5.38 | 4.98 | 62.7 | 37.3 | 0.65 | 77.4 | 1.07 | 20.9 | Activity [33]: Active; Activity [34]: Active; Activity [35]: Active; Activity [36]: Active; Activity [37]: Active; Activity [38]: Active |
